Assay results reported in patent US4343790A, “Controlled release acrylic polymer coated granular pesticidal compositions with attendant reduced dermal toxicity” (priority 1980, dated 1982).

Assay: dermal toxicity of granular formulations (dermal LD50), male albino rabbits
Conditions: rabbit, in vivo, topical or ocular, Table I, 24 h cuff, 14 days observation, O,O-diethyl S-{[(1,1-dimethylethyl)thio]methyl}phosphorodithioate
Text: General method for the evaluation of dermal toxicity of the formulations of the present invention using male albino rabbits as the test animals
a. Five male albino rabbits weighing approximately 2.2 to 3.5 kilogram are selected for each dosage level. The hair is shaved from the entire trunk.
b. Saran tubing or "Vinylite" film VU1900, 30.5 cm (12") wide, 0.04 millimeter in thickness and long enough to fit around the rabbit.
c. One felt cloth bandage measuring approximately 22.9×45.7 cm (9"×18").
d. Four pieces of 3.8 cm (1.5") adhesive tape approximately 35.6 cm (14") long.
a. The granular material is placed in the center of the plastic film and is moistened with water.
b. The rabbits underside is moistened with water and the animals are placed belly down on the material.
c. The plastic is then brought up and around the animal and secured at each end with strips of adhesive tape. The felt cloth is then placed under the belly and brought up around the animal and secured to the body with the remaining two strips of adhesive tape.
Twenty-four hours after dosing, the "cuff" is removed and any remaining material is brushed away. If the test material cannot be removed, the animal is fitted with a fiber collar which prevents the animal from licking the treatment area. The animals are observed for 14 days, post dosing, noting signs of toxicity, skin irritation and mortality. […]

CCOP(=S)(OCC)SCSC(C)(C)C [O,O-diethyl S-{[(1,1-dimethylethyl)thio]methyl}phosphorodithioate]
LD50 at 336 h: 1 to 2 mg/kg
